One may read the Ki as the dissociation constant of the complex between target and ligand, obtained from inhibition or displacement. A high value points to lower affinity.

Consider 18 molecules from patent US9296741B2, “Bromodomain inhibitors” (priority 2012, dated 2016).

Data set [1] has as its target human BRD4 first bromodomain (BDI_K57-E168) (Homo sapiens (Human), UniProt O60885). As to the kind of experiment: TR-FRET bromodomain binding assay, BRD4 first bromodomain. (In general: In TR-FRET formats the signal depends on donor and acceptor labels being close together.)
Data set [2] has as its target human BRD4 second bromodomain (BDII_E352-M457) (Homo sapiens (Human), UniProt O60885). As to the kind of experiment: TR-FRET bromodomain binding assay, BRD4 second bromodomain.
For data set [3], the system named is breast cancer cell line MX-1. Put plainly: MX-1 cell line proliferation assay. Type of data set: cell-based, human. The following applies: Homo sapiens, MX1, 72 h; MX-1 cells, 3-day proliferation, Cell Titer Glo; read-out: Cellular proliferation: EC50. For orientation: ATP-based viability assays read luminescence as a measure of living cells.
The nature of data set [4]: Human liver microsome stability assay. It is filed as in vitro ADME. The following applies: both sexes, human, microsomes, pH 7.4.
Data set [5] is described as follows: Rat liver microsome stability assay. Type of data set: in vitro ADME. The settings on record: rat liver microsomes (male Sprague-Dawley), 0.5 μM test compound, 0.25 mg/mL microsomal protein, pH 7.4, 37° C.; read-out: Stability in rat liver microsomes (t1/2 in minutes). On the technique in general: Liver microsomes are a subcellular fraction often used to study metabolism.

Data set [6] can be described thus: Mouse liver microsome stability assay. It is filed as in vitro ADME. The following applies: male, CD1, mouse, microsomes, pH 7.4.

For the molecule `Cn1cc(-c2cc(C3=CCN(C(=O)OC(C)(C)C)CC3)ccc2OCC2CC2)c2cc[nH]c2c1=O` [Example 325, tert-butyl 4-[4-(cyclopropylmethoxy)-3-(6-methyl-7-oxo-6,7-dihydro-1H-pyrrolo[2,3-c]pyridin-4-yl)phenyl]-3,6-dihydropyridine-1(2H)-carboxylate], the Ki in data set [1] was found to be 155 nM; in data set [2], 199 nM. The EC50 in data set [3] was determined as 703 nM. For the same molecule, the half-life at 0.5 μM in data set [4] stood at 21 min; in data set [5], 10 min; in data set [6], 8 min.
Regarding `Cn1cc(-c2cc(C(=O)NCc3ccccn3)ccc2Oc2ccc(F)cc2F)c2cc[nH]c2c1=O` [Example 129, 4-(2,4-difluorophenoxy)-3-(6-methyl-7-oxo-6,7-dihydro-1H-pyrrolo[2,3-c]pyridin-4-yl)-N-(pyridin-2-ylmethyl)benzamide], the Ki in data set [1] turned out to be 37.9 nM; in data set [2] it was 45.6 nM. Moreover, in data set [3], the EC50 was determined as 118 nM. Moreover, the half-life at 0.5 μM was found to be 54 min in data set [4], 38 min in data set [5] and 12 min in data set [6].
On to `CN(C)CCS(=O)(=O)Nc1ccc(Oc2ccc(F)cc2F)c(-c2cn(C)c(=O)c3[nH]ccc23)c1` [Example 300, N-[4-(2,4-difluorophenoxy)-3-(6-methyl-7-oxo-6,7-dihydro-1H-pyrrolo[2,3-c]pyridin-4-yl)phenyl]-2-(dimethylamino)ethanesulfonamide], for which the Ki in data set [1] was 389 nM; in data set [2], 190 nM. Further, in data set [3], the EC50 stood at 176 nM. Moreover, the half-life at 0.5 μM in data set [4] worked out at 30 min; in data set [5], 21 min; in data set [6], 17 min.
On to `Cn1cc(-c2cc(C(=O)NC3CCCC3)ccc2Oc2ccccc2)c2cc[nH]c2c1=O` [Example 15, N-cyclopentyl-3-(6-methyl-7-oxo-6,7-dihydro-1H-pyrrolo[2,3-c]pyridin-4-yl)-4-phenoxybenzamide], for which the Ki in data set [1] turned out to be 4.2 nM; in data set [2], 7.5 nM. In data set [3], the EC50 is 140 nM. In addition, the half-life at 0.5 μM in data set [4] came to 10 min; in data set [5], 4 min; in data set [6], 7 min.
On to `Cn1cc(-c2cc(CC#N)ccc2OCC2CC2)c2cc[nH]c2c1=O` [Example 336, [4-(cyclopropylmethoxy)-3-(6-methyl-7-oxo-6,7-dihydro-1H-pyrrolo[2,3-c]pyridin-4-yl)phenyl]acetonitrile], for which the figures for the Ki in data set [1] and in data set [2] were 76.2 nM and 152 nM, respectively. Also, the EC50 in data set [3] stood at 115 nM. The values for the half-life at 0.5 μM in data set [4], in data set [5] and in data set [6] were 44 min, 5 min and 17 min, respectively.
For `CCS(=O)(=O)c1ccc(OCC2CC2(F)F)c(-c2cn(C)c(=O)c3[nH]c(C(=O)NCC(F)(F)F)cc23)c1` (stereo not drawn) [Example 327, 4-{2-[(2,2-difluorocyclopropyl)methoxy]-5-(ethylsulfonyl)phenyl}-6-methyl-7-oxo-N-(2,2,2-trifluoroethyl)-6,7-dihydro-1H-pyrrolo[2,3-c]pyridine-2-carboxamide], the figures for the Ki in data set [1] and in data set [2] were 8.5 nM and 4.2 nM, respectively. Also, in data set [3], the EC50 amounted to 35.4 nM. In addition, the half-life at 0.5 μM in data set [4], in data set [5] and in data set [6] was over 120 min each time.
On to `CNS(=O)(=O)c1cnc(OCC2CC2)c(-c2cn(C)c(=O)c3[nH]ccc23)c1` [Example 208, 6-(cyclopropylmethoxy)-N-methyl-5-(6-methyl-7-oxo-6,7-dihydro-1H-pyrrolo[2,3-c]pyridin-4-yl)pyridine-3-sulfonamide], for which the Ki is 5.6 nM in data set [1] and 6 nM in data set [2]. Besides, the EC50 in data set [3] worked out at 23.5 nM. In addition, the half-life at 0.5 μM in data set [4] was found to be 88 min; in data set [5], 23 min; in data set [6], 37 min.
Take `Cn1cc(-c2cc(NS(=O)(=O)C3CC3)ccc2Oc2ccc(F)cc2F)c2cc[nH]c2c1=O` [Example 235, N-[4-(2,4-difluorophenoxy)-3-(6-methyl-7-oxo-6,7-dihydro-1H-pyrrolo[2,3-c]pyridin-4-yl)phenyl]cyclopropanesulfonamide]: the results for the inhibitory constant (Ki) in data set [1] and in data set [2] were 17.4 nM and 7 nM, respectively. The EC50 in data set [3] amounted to 66.5 nM. Besides, the half-life at 0.5 μM amounted to 81 min in data set [4], 49 min in data set [5] and 22 min in data set [6].
Consider `CCS(=O)(=O)c1ccc(Oc2ccc(F)cc2F)c(-c2cn(C)c(=O)c3[nH]ncc23)c1` [Example 322, 4-[2-(2,4-difluorophenoxy)-5-(ethylsulfonyl)phenyl]-6-methyl-1,6-dihydro-7H-pyrazolo[3,4-c]pyridin-7-one], for which the values for the Ki in data set [1] and in data set [2] were 181 nM and 45.6 nM, respectively. In addition, in data set [3], the EC50 stood at 66.8 nM. For the same molecule, the half-life at 0.5 μM was over 120 min in data set [4], 57 min in data set [5] and over 120 min in data set [6].
Turning to `Cn1cc(-c2cc(S(C)(=O)=O)ccc2OC[C@H]2CCC(=O)N2)c2cc[nH]c2c1=O` [Example 226, 6-methyl-4-[5-(methylsulfonyl)-2-{[(2R)-5-oxopyrrolidin-2-yl]methoxy}phenyl]-1,6-dihydro-7H-pyrrolo[2,3-c]pyridin-7-one], the Ki in data set [1] worked out at 141 nM; in data set [2] it was 438 nM. Also, the EC50 in data set [3] is over 3000 nM. For the same molecule, the half-life at 0.5 μM in data set [4] was 105 min; in data set [5] it was over 120 min; in data set [6], over 120 min.
As for `Cn1cc(-c2cc(S(C)(=O)=O)ccc2Oc2cccc(C#N)c2)c2cc[nH]c2c1=O` [Example 155, 3-[2-(6-methyl-7-oxo-6,7-dihydro-1H-pyrrolo[2,3-c]pyridin-4-yl)-4-(methylsulfonyl)phenoxy]benzonitrile], the Ki in data set [1] worked out at 19.3 nM; in data set [2] it was 14.8 nM. For the same molecule, the EC50 in data set [3] turned out to be 117 nM. Moreover, the half-life at 0.5 μM was over 120 min in data set [4], over 120 min in data set [5] and 25 min in data set [6].
As for `CCOC(=O)c1cc2c(-c3cc(N)ccc3Oc3ccccc3)cn(C)c(=O)c2[nH]1` [Example 69, ethyl 4-(5-amino-2-phenoxyphenyl)-6-methyl-7-oxo-6,7-dihydro-1H-pyrrolo[2,3-c]pyridine-2-carboxylate], the figures for the Ki in data set [1] and in data set [2] were 39 nM and 12.3 nM, respectively. In data set [3], the EC50 turned out to be 140 nM. Besides, the half-life at 0.5 μM in data set [4] came out at 6 min; in data set [5], 2 min; in data set [6] it was 3 min.
In the case of `CCS(=O)(=O)c1ccc(OC2CCN(C)CC2)c(-c2cn(C)c(=O)c3[nH]ccc23)c1` [Example 170, 4-{5-(ethylsulfonyl)-2-[(1-methylpiperidin-4-yl)oxy]phenyl}-6-methyl-1,6-dihydro-7H-pyrrolo[2,3-c]pyridin-7-one], the Ki in data set [1] was 22.8 nM; in data set [2], 94 nM. Moreover, the EC50 in data set [3] was determined as 332 nM. For the same molecule, the half-life at 0.5 μM in data set [4] was over 120 min; in data set [5] it was 113 min; in data set [6], 27 min.
For the molecule `Cn1cc(-c2cc(-c3ccc(F)nc3)ccc2OCC2CC2)c2cc[nH]c2c1=O` [Example 348, 4-[2-(cyclopropylmethoxy)-5-(6-fluoropyridin-3-yl)phenyl]-6-methyl-1,6-dihydro-7H-pyrrolo[2,3-c]pyridin-7-one], the Ki in data set [1] was 157 nM; in data set [2], 422 nM. Further, the EC50 in data set [3] turned out to be 1000 nM. Further, the half-life at 0.5 μM in data set [4] is over 120 min; in data set [5], 2 min; in data set [6], 25 min.
In the case of `Cn1cc(-c2cc(C(=O)NCC3CCCO3)ccc2Oc2ccccc2)c2cc[nH]c2c1=O` (stereo not drawn) [Example 14, 3-(6-methyl-7-oxo-6,7-dihydro-1H-pyrrolo[2,3-c]pyridin-4-yl)-4-phenoxy-N-(tetrahydrofuran-2-ylmethyl)benzamide], the Ki in data set [1] turned out to be 5.5 nM; in data set [2], 12.3 nM. Moreover, the EC50 in data set [3] was 170 nM. For the same molecule, the values for the half-life at 0.5 μM in data set [4], in data set [5] and in data set [6] were 37 min, 6 min and 8 min, respectively.
For `Cn1cc(-c2cc(S(C)(=O)=O)ccc2OC2CCCCC2)c2cc[nH]c2c1=O` [Example 215, 4-[2-(cyclohexyloxy)-5-(methylsulfonyl)phenyl]-6-methyl-1,6-dihydro-7H-pyrrolo[2,3-c]pyridin-7-one], the Ki was 0.83 nM in data set [1] and 0.46 nM in data set [2]. Besides, the EC50 in data set [3] turned out to be 1.9 nM. Further, the half-life at 0.5 μM amounted to 12 min in data set [4], 6 min in data set [5] and 11 min in data set [6].
In the case of `Cn1cc(-c2cc(C(=O)NCc3ccncc3)ccc2Oc2ccc(F)cc2F)c2cc[nH]c2c1=O` [Example 121, 4-(2,4-difluorophenoxy)-3-(6-methyl-7-oxo-6,7-dihydro-1H-pyrrolo[2,3-c]pyridin-4-yl)-N-(pyridin-4-ylmethyl)benzamide], the Ki in data set [1] stood at 15.5 nM; in data set [2], 33.4 nM. The EC50 in data set [3] stood at 251 nM. Further, the half-life at 0.5 μM in data set [4] was 21 min; in data set [5], 25 min; in data set [6] it was 24 min.
As for `Cn1cc(-c2cc(S(C)(=O)=O)ccc2OCC2CCCC2)c2cc[nH]c2c1=O` [Example 214, 4-[2-(cyclopentylmethoxy)-5-(methylsulfonyl)phenyl]-6-methyl-1,6-dihydro-7H-pyrrolo[2,3-c]pyridin-7-one], the values for the inhibition constant (Ki) in data set [1] and in data set [2] were 2.4 nM and 1.7 nM, respectively. In addition, in data set [3], the EC50 is 10.5 nM. Besides, the half-life at 0.5 μM in data set [4] was found to be 27 min; in data set [5], 9 min; in data set [6] it was 8 min.
